The values below come from patent US8426447B2, “Spiro-tricyclic ring compounds as beta-secretase modulators and methods of use” (Amgen Inc., priority 2008, dated 2013).

Each structure is given as a SMILES string.

The target of assay [1] is T1, BACE1 (Homo sapiens, UniProt P56817). Kind of assay: In Vitro BACE Cell-based Assay (HEK cell assay): Aβ40 in conditioned medium of cells stably expressing Amyloid Precursor Protein, sandwich ELISA. As to conditions: read-out: HEK cell assay. The gist of the method:
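APP-expressing cells were cultured 24 h in DMEM/10% FBS, then treated 24 h with compounds in 10-point dose response (top 100 μM or 10 μM; 0.1% DMSO final). Secreted Aβ40 was quantified by sandwich ELISA (pAb40 capture, biotinylated 6E10 detection, Europium TRF); IC50 from percent inhibition versus concentration.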
(In general: In an ELISA, binding on a coated surface is turned into a signal by an enzyme label.)

Assay [2] relates to amyloid beta peptide (A-beta) in cerebrospinal fluid and brain. Nature of the assay: In Vivo Inhibition of Beta-Secretase: reduction of A-beta levels in CSF and brain. Particulars: 10 mpk, after 4 hrs, mouse or rat.
Source text: Several animal models, including mouse, rat, dog, and monkey, may be used to screen for inhibition of beta-secretase activity in vivo following administration of a test compound sample. Animals used in this invention can be wild type, transgenic, or gene knockout animals. […] A separate group of animals receive 2% hydroxypropyl methylcellulose, 1% Tween80 alone, containing no test compound, and serve as a vehicle-control group. At the end of the test period, animals are sacrificed and brain tissues, plasma or cerebrospinal fluid are collected. […] Homogenates are centrifuged at 355,000 g, 4° C. for 30 minutes. CSF or brain supernatants are then analyzed for the presence of A-beta peptide by specific sandwich ELISA assays based on ECL (Electrochemiluminescence) technology. For example, rat Abeta40 is measured using biotinylated-4G8 (Signet) as a capture antibody and Fab40 (an in-house antibody specific to the C-terminal of Abeta40) as a detection antibody.
Assay [3] has as its target T1, BACE1. Nature of the assay: In Vitro Enzymatic BACE FRET (Fluorescence Resonance Energy Transfer) Assay. The format is biochemical. As to conditions: read-out: BACE1 FRET assay. The gist of the method:
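Fluorescence read-out after Tris addition raises pH to neutrality and ends the reaction. Before that, a peptide substrate carrying fluorophore and quencher across the BACE cleavage site (50 nM) is incubated with enzyme for one hour at pH 4.2 in acetate containing 10% DMSO and sub-micellar genapol.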

[4] abbreviates: Table II, Aβ40, 24 h incubation.
The mark [5] stands for this setting: HEK cell-based assay, Aβ40 in conditioned medium, IC50 class symbols.
Where [6] appears, read: in vitro BACE FRET enzyme assay, IC50 class symbols.

T1 sequence (P56817 46-501, species assumed): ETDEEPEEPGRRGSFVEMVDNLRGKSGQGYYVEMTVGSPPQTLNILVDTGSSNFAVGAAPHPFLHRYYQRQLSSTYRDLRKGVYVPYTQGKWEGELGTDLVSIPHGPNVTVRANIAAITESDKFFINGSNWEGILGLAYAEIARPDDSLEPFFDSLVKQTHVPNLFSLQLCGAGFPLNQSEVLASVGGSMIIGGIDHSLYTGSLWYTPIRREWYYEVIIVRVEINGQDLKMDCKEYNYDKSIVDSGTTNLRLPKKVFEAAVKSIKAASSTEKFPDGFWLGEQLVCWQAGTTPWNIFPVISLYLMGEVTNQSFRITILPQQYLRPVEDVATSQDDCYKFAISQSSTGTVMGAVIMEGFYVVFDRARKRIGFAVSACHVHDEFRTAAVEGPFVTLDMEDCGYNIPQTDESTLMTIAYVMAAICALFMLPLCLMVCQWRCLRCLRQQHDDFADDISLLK

In the case of `CC(C)(C)/C=C/c1cc2c(cn1)Oc1ccc(-c3cncnc3)cc1[C@@]21COC(N)=N1` [Example 291, (S,E)-3-(3,3-dimethylbut-1-enyl)-7-(pyrimidin-5-yl)-5′H-spiro[chromeno[2,3-c]pyridine-5,4′-oxazol]-2′-amine], the IC50 on BACE1 [1] (HEK cells) is < 0.1 µM. For the same molecule, in assay [2], the “percent reduction in CSF A-beta levels” value is recorded as 62% and the “percent reduction in brain A-beta levels” value came out at 32%. Besides, the IC50 on BACE1 [3] is < 0.1 µM.

For the molecule `NC1=N[C@]2(CO1)c1cc(OCC3CC3)ccc1Oc1ccc(-c3cncnc3)cc12` [Example 61, (4S)-2′-(cyclopropylmethoxy)-7′-(5-pyrimidinyl)spiro[1,3-oxazole-4,9′-xanthen]-2-amine], the IC50 on BACE1 [1] (setting [4]) and at BACE1 [3] (Table II) was < 0.1 µM each time. In addition, the “percent reduction in CSF A-beta levels” value in assay [2] is 50%. Besides, the “percent reduction in brain A-beta levels” value in assay [2] stood at 18%.

As for `NC1=N[C@@]2(CO1)c1cc(-c3cccnc3)ccc1Oc1ccc(N3CC(F)(F)C3)cc12` [Example 540, (4S)-2′-(3,3-difluoro-1-azetidinyl)-7′-(3-pyridinyl)spiro[1,3-oxazole-4,9′-xanthen]-2-amine], the IC50 on BACE1 [1] (Table IV, class symbols) is < 0.1 µM. Also, in assay [2], the “percent reduction in CSF A-beta levels” value turned out to be 40% and the “percent reduction in brain A-beta levels” value was 7%. In addition, on BACE1 [3] (Table IV, class symbols), the IC50 was < 0.1 µM.

As to `CC(C)(C)COc1cnc2c(c1)[C@]1(COC(N)=N1)c1cc(-c3cccnc3)ccc1O2` [Example 744, (5S)-3-(2,2-dimethylpropoxy)-7-(3-pyridinyl)spiro[chromeno[2,3-b]pyridine-5,4′-[1,3]oxazol]-2′-amine], in assay [2], the “percent reduction in CSF A-beta levels” value came out at 37% and the “percent reduction in brain A-beta levels” value is given as 26%.

As for `CC(=O)c1cccc(-c2ccc3c(c2)[C@]2(COC(N)=N2)c2cc(OCC(C)(C)C)ccc2O3)c1` [compound 191], the IC50 was 1 to 5 µM at BACE1 [1] (Table III, IC50's in uM ranges) and < 0.1 µM at BACE1 [3] (Table III, IC50's in uM ranges).

Consider `CC(C)(C)COc1ccc2c(c1)[C@]1(COC(N)=N1)c1cc(-c3cc(Cl)ccc3F)cnc1O2` [Example 69, (5R)-3-(5-chloro-2-fluorophenyl)-7-(2,2-dimethylpropoxy)spiro[chromeno[2,3-b]pyridine-5,4′-[1,3]oxazol]-2′-amine], for which the figures for the IC50 at BACE1 [1] (setting [4]) and on BACE1 [3] (Table II) were 1 to 5 µM and < 0.1 µM, respectively.

`Cc1ccncc1-c1ccc2c(c1)[C@@]1(COC(N)=N1)c1cc(OCC(C)(C)C)ccc1O2` [Example 86, (4S)-2′-(2,2-dimethylpropoxy)-7′-(4-methyl-3-pyridinyl)spiro[1,3-oxazole-4,9′-xanthen]-2-amine]: the results for the IC50 at BACE1 [1] (setting [4]) and at BACE1 [3] (Table II) were 0.1 to 1 µM and < 0.1 µM, respectively.

`NC1=N[C@@]2(CO1)c1cc(-c3cccnc3)ccc1Oc1cnc(C3=CCOCC3)cc12` [compound 849]: the IC50 at BACE1 [1] (Table IV, class symbols) was < 0.1 µM; on BACE1 [3] (Table IV, class symbols), < 0.1 µM.

For `NC1=N[C@]2(CO1)c1ccccc1Oc1ccc(C(=O)NC3CCCCC3)cc12` [compound 621], the IC50 on BACE1 [1] (Table IV, class symbols) is > 5 µM; on BACE1 [3] (Table IV, class symbols), > 5 µM.

Regarding `NC1=N[C@]2(CO1)c1cc(-c3cncnc3)ccc1Oc1cccnc12` [compound 527], the IC50 at BACE1 [1] (HEK cells) and at BACE1 [3] was 0.1 to 1 µM throughout.

`CC(C)(C)C#Cc1cnc2c(c1)[C@]1(COC(N)=N1)c1cc(-c3ccc(F)nc3)ccc1O2` [compound 766]: the IC50 on BACE1 [1] and at BACE1 [3] was < 0.1 µM throughout.

`COc1ccc2c(c1)[C@]1(COC(N)=N1)c1cc(Br)cc(F)c1O2` [compound 377]: the results for the IC50 at BACE1 [1] (setting [5]) and at BACE1 [3] (setting [6]) were 1 to 5 µM and > 5 µM, respectively.

In the case of `CC1(COc2cnc3c(c2)[C@]2(COC(N)=N2)c2cc(-c4ccccc4F)ccc2O3)COC1` [compound 458], the IC50 at BACE1 [1] (HEK cells) and on BACE1 [3] was < 0.1 µM in each case.

In the case of `NC1=N[C@]2(CO1)c1cc(-c3ccc(OC(F)(F)F)cc3)ccc1Oc1ccc(-c3cncnc3)cc12` [compound 840], the IC50 was 0.1 to 1 µM on BACE1 [1] (Table IV, class symbols) and < 0.1 µM on BACE1 [3] (Table IV, class symbols).

Turning to `CCCNC(=O)c1ccc2c(c1)[C@@]1(COC(N)=N1)c1cc(OCC(C)(C)C)ccc1O2` [compound 657], the IC50 on BACE1 [1] (Table IV, class symbols) is 0.1 to 1 µM; at BACE1 [3] (Table IV, class symbols) it was < 0.1 µM.

On to `Cc1noc(C)c1-c1ccc2c(c1)[C@]1(COC(N)=N1)c1cc(-c3cccnc3)ccc1O2` [compound 704], for which the IC50 on BACE1 [1] and on BACE1 [3] was 0.1 to 1 µM in each case.

As for `CC(C)(F)COc1ccc2c(c1)[C@]1(COC(N)=N1)c1cc(-c3cncnc3)cnc1O2` [compound 176], the IC50 at BACE1 [1] (Table III, IC50's in uM ranges) is 0.1 to 1 µM; on BACE1 [3] (Table III, IC50's in uM ranges), < 0.1 µM.

Turning to `NC1=N[C@@]2(CO1)c1cc(-c3cccnc3)ccc1Oc1ccc(-c3nccs3)cc12` [compound 666], the IC50 on BACE1 [1] and at BACE1 [3] was < 0.1 µM throughout.

As for `CC(C)(C)COc1ccc2c(c1)[C@]1(COC(N)=N1)c1cc(C3=CCCC3)ccc1O2` [compound 731], the IC50 at BACE1 [1] lay in the range of 1 to 5 µM; at BACE1 [3], 0.1 to 1 µM.

Regarding `CC(C)(C)CC(=O)c1ccc2c(c1)[C@]1(COC(N)=N1)c1cc(-c3ccc(F)nc3)ccc1O2` [150a], the IC50 on BACE1 [1] (Table III, IC50's in uM ranges) is 0.1 to 1 µM; on BACE1 [3] (Table III, IC50's in uM ranges), < 0.1 µM.

As for `NC1=N[C@]2(CO1)c1cc(C3=CCOC3)ccc1Oc1ccc(-c3cncnc3)cc12` [compound 448], the IC50 on BACE1 [1] (HEK cells) and on BACE1 [3] was < 0.1 µM in each case.

With `NC1=N[C@@]2(CO1)c1cc(-c3cncnc3)ccc1Oc1ccc(C(F)(F)F)cc12` [compound 597], the IC50 lay in the range of 0.1 to 1 µM on BACE1 [1] (Table IV, class symbols) and 0.1 to 1 µM at BACE1 [3] (Table IV, class symbols).

Turning to `CC(C)(O)C#Cc1ccc2c(c1)C1(COC(N)=N1)c1cc(C#CC(C)(C)O)ccc1O2` [compound 118], the IC50 was 1 to 5 µM on BACE1 [1] (Table III, IC50's in uM ranges) and 1 to 5 µM at BACE1 [3] (Table III, IC50's in uM ranges).

`CC(C)(C)CCOc1nccc2c1[C@@]1(COC(N)=N1)c1cc(-c3cccnc3)ccc1O2` [compound 931]: the figures for the IC50 on BACE1 [1] and on BACE1 [3] were > 5 µM and 1 to 5 µM, respectively.

Regarding `CC(C)C[C@H]1CN(c2ccc3c(c2)[C@]2(COC(N)=N2)c2cc(-c4cccnc4)ccc2O3)CCO1` [compound 359], the IC50 on BACE1 [1] (setting [5]) and at BACE1 [3] (setting [6]) was 0.1 to 1 µM each time.

Regarding `NC1=N[C@@]2(CO1)c1cc(-c3cccnc3F)ccc1Oc1ncc(-c3ccncc3)cc12` [compound 403], the IC50 on BACE1 [1] (setting [5]) and on BACE1 [3] (setting [6]) was < 0.1 µM throughout.

Take `Cn1cc(-c2cc3c(cn2)Oc2ccc(-c4cccc(Cl)c4)cc2[C@@]32COC(N)=N2)cn1` [compound 329]: the IC50 at BACE1 [1] (setting [5]) and on BACE1 [3] (setting [6]) was < 0.1 µM throughout.

Regarding `COc1ccc2c(c1)[C@]1(COC(N)=N1)c1cc(NC(=O)C(F)(F)F)ccc1O2` [compound 651], the IC50 at BACE1 [1] (Table IV, class symbols) was in the range of 1 to 5 µM; on BACE1 [3] (Table IV, class symbols), 0.1 to 1 µM.

Regarding `NC1=N[C@]2(CO1)c1cc(-c3cccnc3)ccc1Oc1cnc(Cl)cc12` [compound 955], the IC50 at BACE1 [1] was > 5 µM; at BACE1 [3], 1 to 5 µM.

Consider `CC(C)(C)/C=C/c1ccc2c(n1)[C@]1(COC(N)=N1)c1cc(-c3cccnc3)ccc1O2` [compound 398], for which the IC50 on BACE1 [1] (setting [5]) and on BACE1 [3] (setting [6]) was < 0.1 µM in each case.

`CC(C)(F)COc1cnc2c(c1)[C@]1(COC(N)=N1)c1cc(-c3ccccc3)ccc1O2` [compound 452]: the IC50 on BACE1 [1] (HEK cells) was 0.1 to 1 µM; at BACE1 [3] it was < 0.1 µM.

As for `NC1=N[C@@]2(CO1)c1cc(-c3cccnc3)ccc1Oc1ccc(-c3csc(C4CC4)n3)cc12` [compound 632], the IC50 at BACE1 [1] (Table IV, class symbols) is 0.1 to 1 µM; at BACE1 [3] (Table IV, class symbols), < 0.1 µM.

For `COCC[C@@H]1CN(c2ccc3c(c2)[C@]2(COC(N)=N2)c2cc(-c4cccnc4)ccc2O3)CCO1` [compound 421], the IC50 at BACE1 [1] (HEK cells) and at BACE1 [3] was 0.1 to 1 µM each time.

`CC(=O)c1sccc1-c1ccc2c(c1)[C@@]1(COC(N)=N1)c1cc(OCC(C)(C)C)ccc1O2` [compound 835]: the IC50 on BACE1 [1] (Table IV, class symbols) was > 5 µM; at BACE1 [3] (Table IV, class symbols), 1 to 5 µM.

Regarding `CC(C)(C)CCc1ccc2c(c1)[C@]1(COC(N)=N1)c1cc(-c3cccnc3)cnc1O2` [182b], the IC50 at BACE1 [1] (Table III, IC50's in uM ranges) is 0.1 to 1 µM; on BACE1 [3] (Table III, IC50's in uM ranges), < 0.1 µM.

For the molecule `NC1=N[C@@]2(CO1)c1cc(-c3cc(F)ccc3F)ccc1Oc1ncc(C3=CCOCC3)cc12` [compound 487], the IC50 on BACE1 [1] (HEK cells) and on BACE1 [3] was < 0.1 µM in each case.

Regarding `COc1ccc(F)c(-c2ccc3c(c2)C2(COC(N)=N2)c2cc(OC)ccc2O3)c1` (centres unmarked) [Example 15, 2′-(2-fluoro-5-methoxyphenyl)-7′-methoxyspiro[1,3-oxazole-4,9′-xanthen]-2-amine], the IC50 on BACE1 [1] (Table 1, Aβ40, 24 h incubation) is > 5 µM; on BACE1 [3] (Table 1), 1 to 5 µM.

As to `CON(C)C(=O)COc1ccc2c(c1)[C@]1(COC(N)=N1)c1cc(-c3cccnc3)ccc1O2` [compound 788], the IC50 on BACE1 [1] and at BACE1 [3] was 1 to 5 µM in each case.

For the molecule `CC(C)(F)COc1cnc2c(c1)[C@]1(COC(N)=N1)c1cc(-c3cccnc3)ccc1O2` [compound 450], the IC50 on BACE1 [1] (HEK cells) and at BACE1 [3] was < 0.1 µM in each case.

Regarding `COc1cc2c(cc1F)Oc1ccc(-c3cncnc3)cc1[C@@]21COC(N)=N1` [154b], the IC50 on BACE1 [1] (Table III, IC50's in uM ranges) is 0.1 to 1 µM; on BACE1 [3] (Table III, IC50's in uM ranges) it was < 0.1 µM.
